Patent US12311058B2, “Single protein-encapsulated pharmaceutics for enhancing therapeutic effects” (priority 2018, dated 2025)

Columns and labels:
[1] = congestive heart failure incidents; cited from earlier work
[2] = test system: breast cancer cell line, MDA-MB231; assay: Xenograft model efficacy study, breast cancer MDA-MB231, in female athymic nude mice; conditions: iv; for % TGI, percent tumor growth inhibition compared to Group 1 / MTV (n) Day 20, median tumor volume: Doxorubicin 5, Composition 7 10, Mitoxantrone 3, Composition 6 6 mg/kg, Day 20
Procedure: An efficacy study against breast cancer tumor was carried out on the materials from Example 8 (Composition 7) and Example 7 (Composition 6).

[3] = mouse model, documented; cited from earlier work
[4] = Dialysis study on free form of doxorubicin, HSA/DOX mixture and Composition 7; assay type: physicochemical; conditions: PBS pH=7.4
Procedure: The dialysis tube was sealed and put into a glass beaker containing 100 mL of either PBS buffer (pH=7.4) or acetate buffer (pH=5.5) with a magnetic stirring bar. With constant stirring, aliquots (500 uL) at different time points were taken from the glass beaker and analyzed by UV spectrometer. […] It is most interesting to notice that HSA-encapsulated DOX is almost 3.5 times faster at pH=5.5 than at pH=7.4 for being dialyzed out from the dialysis tube.

Compound | Lifetime limit (cumulative dose) [1] | Deaths NTR (non-treatment-related death) ([2]; qwk × 3, 20 day study) | Deaths TR (treatment-related death) ([2]; qwk × 3, 20 day study) | Regressions CR (complete regression) ([2]; qwk × 3, 20 day study) | Regressions PR (partial regression) ([2]; qwk × 3, 20 day study) | % TGI, percent tumor growth inhibition compared to Group 1 ([2]; qwk × 3) | MTV (n) Day 20, median tumor volume ([2]; qwk × 3) | Maximum tolerated dose (MTD) [3] | Dialysis behaviour of free form [4] | Mean BW Nadir, lowest group mean body weight as % change from Day 1 ([2]; qwk × 3, 20 day study) | Day of Mean BW Nadir ([2]; mouse, in vivo)
COc1cccc2c1C(=O)c1c(O)c3c(c(O)c1C2=O)C[C@@](O)(C(=O)CO)C[C@@H]3O[C@H]1C[C@H](N)[C@H](O)[C@H](C)O1 [Doxorubicin, doxorubicin] | < 450 mg/m^2 | 0 | 0 | 0 | 0 | 34% | 453 (8) mm^2 | 5 mg/kg | precipitated in the dialysis bag due to the poor solubility at pH=7.4 | – | –
O=C1c2c(O)ccc(O)c2C(=O)c2c(NCCNCCO)ccc(NCCNCCO)c21 [Mitoxantrone, mitoxantrone] | – | 0 | 0 | 0 | 0 | 27% | 498 (8) mm^2 | 3 mg/kg | – | −0.2% | 8 days
